Assay: Solubility experiment in cyclohexanone
Assay type: physicochemical
Conditions: dissolved in cyclohexanone (CHON) under normal temperature/pressure; whether 0.1 wt % or more was dissolved
Procedure: In order to confirm the solubility in the solvent used in the solution process of the compounds prepared in the Preparation Examples and the comparative compounds, each of them was dissolved in the solvent cyclohexanone (CHON) under normal temperature/pressure conditions, and it was confirmed whether 0.1 wt % or more was dissolved.

Solvent CHON (solubility)	Structure (SMILES)
◯ (0.1 wt. % or more soluble)	Cc1cccc(N(c2ccc3c4c5ccc6c(c5ccc4n(-c4ccccc4)c3c2)c2ccc(N(c3ccc(C(C)(C)C)cc3)c3ccc4c5c7ccc8c(c7ccc5n(-c5ccccc5)c4c3)c3ccc(N(c4cccc(C)c4)c4cccc5c4oc4ccccc45)cc3n8-c3ccccc3)cc2n6-c2ccccc2)c2cccc3c2oc2ccccc23)c1 [Compound 1]
◯ (0.1 wt. % or more soluble)	Cc1cccc(N(c2ccc3c4c5ccc6c(c5ccc4n(-c4ccccc4)c3c2)c2ccc(N(c3cccc(C)c3)c3cccc4c3oc3ccccc34)cc2n6-c2ccccc2)c2ccc3c4c5ccc6c(c5ccc4n(-c4ccccc4)c3c2)c2ccc(N(c3cccc(C)c3)c3cccc4c3oc3ccccc34)cc2n6-c2ccccc2)c1 [Compound 2]
◯ (0.1 wt. % or more soluble)	Cc1cccc(N(c2ccc3c4c5ccc6c(c5ccc4n(-c4ccccc4)c3c2)c2ccc(N(c3ccc4c5c7ccc8c(c7ccc5n(-c5ccccc5)c4c3)c3ccc(N(c4cccc(C)c4)c4cccc5c4oc4ccccc45)cc3n8-c3ccccc3)c3cccc4c3oc3ccccc34)cc2n6-c2ccccc2)c2cccc3c2oc2ccccc23)c1 [Compound 3]
◯ (0.1 wt. % or more soluble)	Cc1cccc(N(c2ccc3c4c5ccc6c(c5ccc4n(-c4ccccc4)c3c2)c2ccc(N(c3ccccc3)c3ccc4c5c7ccc8c(c7ccc5n(-c5ccccc5)c4c3)c3ccc(N(c4cccc(C)c4)c4cccc5c4oc4ccccc45)cc3n8-c3ccccc3)cc2n6-c2ccccc2)c2cccc3c2oc2ccccc23)c1 [Compound 4]
◯ (0.1 wt. % or more soluble)	Cc1cccc(N(c2ccc3c4c5ccc6c(c5ccc4n(-c4ccccc4)c3c2)c2ccc(N(c3ccc(-c4cc5ccccc5o4)cc3)c3ccc4c5c7ccc8c(c7ccc5n(-c5ccccc5)c4c3)c3ccc(N(c4cccc(C)c4)c4cccc5c4oc4ccccc45)cc3n8-c3ccccc3)cc2n6-c2ccccc2)c2cccc3c2oc2ccccc23)c1 [Compound 5]
◯ (0.1 wt. % or more soluble)	CC(C)(C)c1ccc(N(c2ccc(C(C)(C)C)cc2)c2ccc3c4c5ccc6c(c5ccc4n(-c4ccccc4)c3c2)c2ccc(N(c3ccc(C(C)(C)C)cc3)c3ccc4c5c7ccc8c(c7ccc5n(-c5ccccc5)c4c3)c3ccc(N(c4ccc(C(C)(C)C)cc4)c4ccc(C(C)(C)C)cc4)cc3n8-c3ccccc3)cc2n6-c2ccccc2)cc1 [Compound 6]
◯ (0.1 wt. % or more soluble)	CC(C)(C)c1ccc(N(c2ccc(C(C)(C)C)cc2)c2ccc3c4c5ccc6c(c5ccc4n(-c4ccccc4)c3c2)c2ccc(N(c3ccc4c5c7ccc8c(c7ccc5n(-c5ccccc5)c4c3)c3ccc(N(c4ccc(C(C)(C)C)cc4)c4ccc(C(C)(C)C)cc4)cc3n8-c3ccccc3)c3cccc4c3oc3ccccc34)cc2n6-c2ccccc2)cc1 [Compound 7]
◯ (0.1 wt. % or more soluble)	CC(C)(C)c1ccc(N(c2ccc(C(C)(C)C)cc2)c2ccc3c4c5ccc6c(c5ccc4n(-c4ccccc4)c3c2)c2ccc(N(c3ccc(-c4cc5ccccc5o4)cc3)c3ccc4c5c7ccc8c(c7ccc5n(-c5ccccc5)c4c3)c3ccc(N(c4ccc(C(C)(C)C)cc4)c4ccc(C(C)(C)C)cc4)cc3n8-c3ccccc3)cc2n6-c2ccccc2)cc1 [Compound 8]
◯ (0.1 wt. % or more soluble)	CC(C)(C)c1ccc(N(c2ccc3c4c5ccc6c(c5ccc4n(-c4ccccc4)c3c2)c2ccc(N(c3ccc(-c4ccc5c(c4)c4ccccc4n5-c4ccccc4)cc3)c3ccc4ccccc4c3)cc2n6-c2ccccc2)c2ccc3c4c5ccc6c(c5ccc4n(-c4ccccc4)c3c2)c2ccc(N(c3ccc(-c4ccc5c(c4)c4ccccc4n5-c4ccccc4)cc3)c3ccc4ccccc4c3)cc2n6-c2ccccc2)cc1 [Compound 9]
◯ (0.1 wt. % or more soluble)	CC(C)(C)c1ccc(N(c2ccc3c4c5ccc6c(c5ccc4n(-c4ccccc4)c3c2)c2ccc(N(c3ccccc3)c3ccc4cc(-c5cc7ccccc7o5)ccc4c3)cc2n6-c2ccccc2)c2ccc3c4c5ccc6c(c5ccc4n(-c4ccccc4)c3c2)c2ccc(N(c3ccccc3)c3ccc4cc(-c5cc7ccccc7o5)ccc4c3)cc2n6-c2ccccc2)cc1 [Compound 10]
◯ (0.1 wt. % or more soluble)	CC(C)(C)c1ccc(N(c2ccc3c4c5ccc6c(c5ccc4n(-c4ccccc4)c3c2)c2ccc(N(c3ccccc3)c3ccccc3)cc2n6-c2ccccc2)c2ccc3c4c5ccc6c(c5ccc4n(-c4ccccc4)c3c2)c2ccc(N(c3ccccc3)c3ccccc3)cc2n6-c2ccccc2)cc1 [Compound 11]
◯ (0.1 wt. % or more soluble)	c1ccc(N(c2ccccc2)c2ccc3c4c5ccc6c(c5ccc4n(-c4ccccc4)c3c2)c2ccc(N(c3ccc4cc(-c5cc7ccccc7o5)ccc4c3)c3ccc4c5c7ccc8c(c7ccc5n(-c5ccccc5)c4c3)c3ccc(N(c4ccccc4)c4ccccc4)cc3n8-c3ccccc3)cc2n6-c2ccccc2)cc1 [Compound 12]
◯ (0.1 wt. % or more soluble)	CC(C)(C)c1ccc(N(c2ccc3c4c5ccc6c(c5ccc4n(-c4ccccc4)c3c2)c2ccc(N(c3ccccc3)c3ccc4ccccc4c3)cc2n6-c2ccccc2)c2ccc3c4c5ccc6c(c5ccc4n(-c4ccccc4)c3c2)c2ccc(N(c3ccccc3)c3ccc4ccccc4c3)cc2n6-c2ccccc2)cc1 [Compound 13]
◯ (0.1 wt. % or more soluble)	Cc1cccc(N(c2ccc3c4c5ccc6c(c5ccc4n(-c4ccccc4)c3c2)c2ccc(-c3ccc(-c4ccc5c7c8ccc9c(c8ccc7n(-c7ccccc7)c5c4)c4ccc(N(c5cccc(C)c5)c5cccc7c5oc5ccccc57)cc4n9-c4ccccc4)cc3)cc2n6-c2ccccc2)c2cccc3c2oc2ccccc23)c1 [Compound 14]
◯ (0.1 wt. % or more soluble)	Cc1cccc(N(c2ccc3c4c5ccc6c(c5ccc4n(-c4ccccc4)c3c2)c2ccc(-c3cccc(-c4ccc5c7c8ccc9c(c8ccc7n(-c7ccccc7)c5c4)c4ccc(N(c5cccc(C)c5)c5cccc7c5oc5ccccc57)cc4n9-c4ccccc4)c3)cc2n6-c2ccccc2)c2cccc3c2oc2ccccc23)c1 [Compound 15]
◯ (0.1 wt. % or more soluble)	Cc1cccc(N(c2ccc3c4c5ccc6c(c5ccc4n(-c4ccccc4)c3c2)c2ccc(-c3ccc4c5c7ccc8c(c7ccc5n(-c5ccccc5)c4c3)c3ccc(N(c4cccc(C)c4)c4cccc5c4oc4ccccc45)cc3n8-c3ccccc3)cc2n6-c2ccccc2)c2cccc3c2oc2ccccc23)c1 [Compound 16]
◯ (0.1 wt. % or more soluble)	Cc1cccc(N(c2ccc3c4c5ccc6c(c5ccc4n(-c4ccccc4)c3c2)c2ccc(Oc3ccc4c5c7ccc8c(c7ccc5n(-c5ccccc5)c4c3)c3ccc(N(c4cccc(C)c4)c4cccc5c4oc4ccccc45)cc3n8-c3ccccc3)cc2n6-c2ccccc2)c2cccc3c2oc2ccccc23)c1 [Compound 17]
◯ (0.1 wt. % or more soluble)	Cc1cccc(N(c2ccc3c(c2)c2c4ccc5c(c4ccc2n3-c2ccccc2)c2cc(N(c3ccc(C(C)(C)C)cc3)c3ccc4c(c3)c3c6ccc7c(c6ccc3n4-c3ccccc3)c3cc(N(c4cccc(C)c4)c4cccc6c4oc4ccccc46)ccc3n7-c3ccccc3)ccc2n5-c2ccccc2)c2cccc3c2oc2ccccc23)c1 [Compound 19]
◯ (0.1 wt. % or more soluble)	Cc1cccc(N(c2cccc3c2oc2ccccc23)c2cccc3c2c2c4ccc5c(c4ccc2n3-c2ccccc2)c2c(N(c3ccc(C(C)(C)C)cc3)c3cccc4c3c3c6ccc7c(c6ccc3n4-c3ccccc3)c3c(N(c4cccc(C)c4)c4cccc6c4oc4ccccc46)cccc3n7-c3ccccc3)cccc2n5-c2ccccc2)c1 [Compound 21]
X (0.1 wt. % or more insoluble)	CC1(C)c2cc(-c3cc4ccccc4o3)ccc2-c2ccc(N(c3ccccc3)c3ccc4c5c6ccc7c(c6ccc5n(-c5ccccc5)c4c3)c3ccc(N(c4ccccc4)c4ccc5c(c4)C(C)(C)c4cc(-c6cc8ccccc8o6)ccc4-5)cc3n7-c3ccccc3)cc21 [Compound J, reference compound]

Reference: US12557545B2, “Compound and organic light emitting device comprising the same” (LG Chem, Ltd., priority 2020, dated 2026)
